Assay results: ChEMBL document CHEMBL1148851, “Chemoenzymatic synthesis and in vitro studies on the hydrolysis of antimicrobial monoglycosyl diglycerides by pancreatic lipase” (2007)
Converted amounts (≈) assume the structure as drawn.

Key:
Format in all cases: functional
[1] = tested on: Mycobacterium tuberculosis; experiment: Antibacterial activity against Mycobacterium tuberculosis H37Rv by dilution method
Bacillus subtilis = experiment: Antibacterial activity against Bacillus subtilis ATCC 6633
Staphylococcus aureus [2] = experiment: Antibacterial activity against Staphylococcus aureus SA52 isolate
Kluyveromyces marxianus = experiment: Antifungal activity against Candida pseudotropicalis by dilution method
[3] = tested on: Mycobacterium tuberculosis; experiment: Antibacterial activity against Mycobacterium tuberculosis H160 by dilution method
Escherichia coli = experiment: Antibacterial activity against Escherichia coli ATCC 25922
[4] = tested on: Mycobacterium tuberculosis; experiment: Antibacterial activity against Mycobacterium tuberculosis H190 by dilution method
Staphylococcus aureus [5] = experiment: Antibacterial activity against Staphylococcus aureus SA85 isolate
Candida albicans = experiment: Antifungal activity against Candida albicans by dilution method
Pseudomonas aeruginosa = experiment: Antibacterial activity against Pseudomonas aeruginosa ATCC 27753
Enterococcus faecalis = experiment: Antibacterial activity against Enterococcus faecalis ATCC 29212
Staphylococcus aureus [6] = experiment: Antibacterial activity against Staphylococcus aureus SA87 isolate
Staphylococcus aureus [7] = experiment: Antibacterial activity against Staphylococcus aureus ATCC 25923
Staphylococcus aureus [8] = experiment: Antibacterial activity against Staphylococcus aureus ATCC 105487
[9] = Mycobacterium tuberculosis, H37Rv, read-out: MIC
[10] = Bacillus subtilis, ATCC 6633, read-out: MIC
[11] = Mycobacterium tuberculosis, H160, read-out: MIC
[12] = Staphylococcus aureus, read-out: MIC

SMILES	MIC [1, 9] [µg/mL]	MIC (Bacillus subtilis; [10]) [µg/mL]	MIC (Staphylococcus aureus [2]) [µg/mL]	MIC (Kluyveromyces marxianus) [µg/mL]	MIC [3, 11] [µg/mL]	MIC (Escherichia coli) [µg/mL]	MIC [4] [µg/mL]	MIC (Staphylococcus aureus [5]) [µg/mL]	MIC (Candida albicans) [µg/mL]	MIC (Pseudomonas aeruginosa) [µg/mL]	MIC (Enterococcus faecalis) [µg/mL]	MIC (Staphylococcus aureus [6]; [12]) [µg/mL]	MIC (Staphylococcus aureus [7]) [µg/mL]	MIC (Staphylococcus aureus [8]) [µg/mL]	MIC (Bacillus subtilis) [µg/mL]	MIC (Staphylococcus aureus [6]) [µg/mL]	MIC [1] [µg/mL]	MIC [3] [µg/mL]
CCCCCCCC/C=C\CCCCCCCC(=O)OC(COC(=O)CCCCCCCCC)CO[C@@H]1O[C@H](CO)[C@@H](O)[C@H](O)[C@H]1O (stereo not given in full)	> 128	32 (≈ 47.6 µM)	> 128	> 128	> 128	> 128	> 128	128 (≈ 190 µM)	> 128	> 128	> 128	> 128	8 (≈ 11.9 µM)	> 128				
CCCCC/C=C\C/C=C\CCCCCCCC(=O)OC(COC(=O)CCCCCCCCC)CO[C@@H]1O[C@H](CO)[C@@H](O)[C@H](O)[C@H]1O (stereo not given in full)	> 128	128 (≈ 191 µM)	> 128	> 128	> 128	> 128	> 128	32 (≈ 47.7 µM)	> 128	> 128	64 (≈ 95.4 µM)	32 (≈ 47.7 µM)	> 128	32 (≈ 47.7 µM)				
CCCCCCCC/C=C\CCCCCCCC(=O)OC(COC(=O)CCCCCCC)CO[C@@H]1O[C@H](CO)[C@H](O)[C@H](O)[C@H]1O (stereo not given in full)	128 (≈ 198 µM)	128 (≈ 198 µM)	> 128	> 128	64 (≈ 99.2 µM)	> 128	64 (≈ 99.2 µM)	> 128	> 128	> 128	> 128	64 (≈ 99.2 µM)	> 128	> 128				
CCCCCCCC/C=C\CCCCCCCC(=O)OC(COC(=O)CCCCCCC)CO[C@@H]1O[C@H](CO)[C@@H](O)[C@H](O)[C@H]1O (stereo not given in full)	64 (≈ 99.2 µM)	128 (≈ 198 µM)	> 128	> 128	64 (≈ 99.2 µM)	> 128	64 (≈ 99.2 µM)	> 128	> 128	> 128	> 128	64 (≈ 99.2 µM)	> 128	> 128				
CC/C=C\C/C=C\C/C=C\CCCCCCCC(=O)OC(COC(=O)CCCCCCC)CO[C@@H]1O[C@H](CO)[C@@H](O)[C@H](O)[C@H]1O (stereo not given in full)	64 (≈ 99.9 µM)	128 (≈ 200 µM)	> 128	> 128	128 (≈ 200 µM)	> 128	64 (≈ 99.9 µM)	> 128	> 128	> 128	> 128	64 (≈ 99.9 µM)	> 128	> 128				
CCCCC/C=C\C/C=C\CCCCCCCC(=O)OC(COC(=O)CCCCCCC)CO[C@@H]1O[C@H](CO)[C@H](O)[C@H](O)[C@H]1O (stereo not given in full)	64 (≈ 99.6 µM)	128 (≈ 199 µM)	> 128	> 128	64 (≈ 99.6 µM)	> 128	128 (≈ 199 µM)	> 128	> 128	> 128	> 128	128 (≈ 199 µM)	> 128	> 128				
CC/C=C\C/C=C\C/C=C\CCCCCCCC(=O)OC(COC(=O)CCCCCCC)CO[C@@H]1O[C@H](CO)[C@H](O)[C@H](O)[C@H]1O (stereo not given in full)	128 (≈ 200 µM)	128 (≈ 200 µM)	> 128	> 128	128 (≈ 200 µM)	> 128	128 (≈ 200 µM)	> 128	> 128	> 128	> 128	64 (≈ 99.9 µM)	> 128	> 128				
CCCCC/C=C\C/C=C\CCCCCCCC(=O)OC(COC(=O)CCCCCCCCC)CO[C@@H]1O[C@H](CO)[C@H](O)[C@H](O)[C@H]1O (stereo not given in full)	> 128	128 (≈ 191 µM)	> 128	> 128	> 128	> 128	> 128	64 (≈ 95.4 µM)	> 128	> 128	128 (≈ 191 µM)	64 (≈ 95.4 µM)	> 128	64 (≈ 95.4 µM)				
CCCCCCCC/C=C\CCCCCCCC(=O)OC(COC(=O)CCCCCCCCC)CO[C@@H]1O[C@H](CO)[C@H](O)[C@H](O)[C@H]1O (stereo not given in full)	> 128	32 (≈ 47.6 µM)	> 128	> 128	> 128	> 128	> 128	128 (≈ 190 µM)	> 128	> 128	> 128	> 128	128 (≈ 190 µM)	> 128				
CC/C=C\C/C=C\C/C=C\CCCCCCCC(=O)OC(COC(=O)CCCCCCCCC)CO[C@@H]1O[C@H](CO)[C@H](O)[C@H](O)[C@H]1O (stereo not given in full)	> 128	> 128	> 128	> 128	> 128	> 128	> 128	64 (≈ 95.7 µM)	> 128	> 128	> 128	32 (≈ 47.8 µM)	> 128	> 128				
CC/C=C\C/C=C\C/C=C\CCCCCCCC(=O)OC(COC(=O)CCCCCCCCC)CO[C@@H]1O[C@H](CO)[C@@H](O)[C@H](O)[C@H]1O (stereo not given in full)	> 128	> 128	> 128	> 128	> 128	> 128	> 128	64 (≈ 95.7 µM)	> 128	> 128	> 128	32 (≈ 47.8 µM)	> 128	> 128				
CCCCCCCC/C=C\CCCCCCCC(=O)OCC(CO[C@@H]1O[C@H](CO)[C@H](O)[C@H](O)[C@H]1O)OC(=O)CCCCCCC/C=C\CCCCCCCC (stereo not given in full)	> 128	> 128	> 128	> 128	> 128	> 128	> 128	> 128	> 128	> 128	> 128	> 128	> 128	> 128				
CCCCC/C=C\C/C=C\CCCCCCCC(=O)OC(COC(=O)CCCCCCC)CO[C@@H]1O[C@H](CO)[C@@H](O)[C@H](O)[C@H]1O (stereo not given in full)	64 (≈ 99.6 µM)	128 (≈ 199 µM)	> 128	> 128	128 (≈ 199 µM)	> 128	64 (≈ 99.6 µM)	> 128	> 128	> 128	> 128	64 (≈ 99.6 µM)	> 128	> 128				
CCCCC/C=C\C/C=C\CCCCCCCC(=O)OCC(CO[C@@H]1O[C@H](CO)[C@@H](O)[C@H](O)[C@H]1O)OC(=O)CCCCCCC/C=C\C/C=C\CCCCC (stereo in doubt; 9g)	64 (≈ 82.1 µM)				64 (≈ 82.1 µM)		128 (≈ 164 µM)								128 (≈ 164 µM)	64 (≈ 82.1 µM)		
CCCCC/C=C\C/C=C\CCCCCCCC(=O)OCC(CO[C@@H]1O[C@H](CO)[C@@H](O)[C@H](O)[C@H]1O)OC(=O)CCCCCCC/C=C\C/C=C\CCCCC (stereo in doubt; 9q)		128 (≈ 164 µM)	> 128	> 128		> 128		> 128	> 128	> 128	> 128	128 (≈ 164 µM)	> 128	> 128			128 (≈ 164 µM)	128 (≈ 164 µM)
